# Reference: US12186325B2, “Treatment and prevention of premature ejaculation (PE)” (SEROJAC PME Handels GmbH, priority 2018, dated 2025)
# Read-outs that look alike come from different tables or passages of the source.
# Columns and labels:
# [1] = cited from earlier work
# [2] = cited from earlier work; for peak plasma concentration: healthy volunteers
# [3] = test system: premature ejaculation (PE); details: cited from earlier work
# [4] = test system: premature ejaculation (PE); assay: Case reports: intravaginal ejaculation latency time (IELT) in PE patients; assay type: in vivo, human
# [5] = Case reports: tolerability and side effects in PE patients; assay type: in vivo, human
# [6] = test system: erectile dysfunction; assay: Case reports: erection / ability to achieve intercourse; assay type: in vivo, human; details: Case Report 6; 12 mg yohimbine daily alone, in two doses
# Description: A patient complained about erectile dysfunction and PE.
# A patient complained about primary PE and about psychogenic erectile dysfunction.
# [7] = test system: seminal vesicle; details: electrical nerve stimulation (Hsieh et al. 1999); cited from earlier work
# [8] = test system: male rats; details: male rats (Shekar et al. 2017); cited from earlier work
# [9] = test system: aged male rats; details: cited from earlier work
# [10] = metabolite after oral clomipramine
smiles,measurement,setting,value
COC(=O)[C@@H]1[C@H]2C[C@H]3c4[nH]c5cc(O)ccc5c4CCN3C[C@@H]2CC[C@@H]1O [11-hydroxy-yohimbine],elimination half-life of active metabolite,[1]; single-dose yohimbine studies,6 h
"CN(C)CCCN1c2ccccc2CCc2ccc(Cl)cc21 [clomipramine, 3-(3-chloro-10,11-dihydro-5H-dibenzo[b,f]azepin-5-yl)-N,N-dimethylpropan-1-amine]",peak plasma concentration,[2]; single oral dose 50 mg,28.8 ± 11.2 ng/mL
same,peak plasma concentration,[2]; single oral dose 100 mg,70 to 140 ng/mL
same,time to climax in premature ejaculators,[3]; 50 mg clomipramine,more than 8 minutes
same,latency to ejaculation,"[3]; 25 milligrams clomipramine 12 to 24 hours before sexual activity, from about 1.5 to 2 minutes",about 8 minutes
same,IELT after treatment,"[4]; Case Report 5, 30 mg clomipramine alone 6 hours before sexual intercourse, before: 1 minute",6 min
same,side effects reported,"[5]; Case Report 5, 30 mg clomipramine alone 6 hours before sexual intercourse","dizziness, dyspepsia and constipation"
CNCCCN1c2ccccc2CCc2ccc(Cl)cc21 [desmethylclomipramine],peak plasma concentration of metabolite,[2]; after single oral dose of 50 mg clomipramine,5.0 ± 1.4 ng/mL
same,half-life,[2]; [10],36 h
same,"half-life, upper limit in brackets",[2]; [10],up to 9 hours
Fc1ccc([C@@H]2CCNC[C@H]2COc2ccc3c(c2)OCO3)cc1 [paroxetine],outcome of earlier PE treatment,"[4]; Case Report 1, 20 to 40 mg daily for 6 months",unsuccessfully
CN[C@H]1CC[C@@H](c2ccc(Cl)c(Cl)c2)c2ccccc21 [sertraline],outcome of earlier PE treatment,"[4]; Case Report 2, 50-100 mg for 16 weeks",unsuccessfully
"COC(=O)[C@@H]1[C@H]2C[C@H]3c4[nH]c5ccccc5c4CCN3C[C@@H]2CC[C@@H]1O [yohimbine, 17α-hydroxy-yohimban-16α-carboxylic acid methyl ester]",erections,[6],improved erections
same,time of intercourse,"[4]; Case Report 6, 12 mg yohimbine daily alone",no amelioration
same,side effects reported,"[5]; Case Report 6, 12 mg yohimbine daily alone, from the second day of treatment",diarrhoea
same,elimination half-life,"[1]; single-dose studies, oral or intravenous",< 1 h
same,effect on seminal vesicle contractile response,[7],can suppress
same,antagonism of clomipramine-induced sexual dysfunction,[8],failed to antagonize
same,effect on erectile dysfunction,[9],improves erectile dysfunction
